Experimental data taken from ChEMBL document CHEMBL6083180, “Design, synthesis, and biological activity of D-bishomo-1α,25-dihydroxyvitamin D3 analogs and their crystal structures with the vitamin D nuclear receptor” (Eur J Med Chem, 2024).
pIC50: −log10 of the molar value. Blank lines part the entries; values can stand above or below the compound they belong to. Active and inactive are the calls of the source. The rule behind the calls is not given here.

Tests used:
ROS 17/2.8 = test: Induction of transcriptional activity in rat ROS 17/2.8 cells transfected with CYP24 incubated for 16 hrs by Luciferase reporter gene assay; type: functional, cell-based
HCC4006 [1] = test: Antiproliferative activity against human HCC4006 cells incubated for 72 hrs by SRB assay; type: functional, cell-based; conditions: HCC4006, 72 h
MCF7 = test: Antiproliferative activity against human MCF7 cells at 100 nM incubated for 72 hrs by SRB assay relative to control; type: functional
MDA-MB-231 = test: Antiproliferative activity against human MDA-MB-231 cells incubated for 72 hrs by SRB assay; type: functional, cell-based
CAL-51 = test: Antiproliferative activity against human CAL-51 cells incubated for 72 hrs by SRB assay; type: functional, cell-based
MCF-10A = test: Antiproliferative activity against human MCF-10A cells incubated for 72 hrs by SRB assay; type: toxicity, cell-based
MV4-11 [2] = test: Antiproliferative activity against human MV4-11 cells at 100 nM incubated for 72 hrs by MTT assay relative to control; type: functional
MV4-11 [3] = test: Antiproliferative activity against human MV4-11 cells at 1000 nM incubated for 72 hrs by MTT assay relative to control; type: functional
HL-60 [4] = test: Antiproliferative activity against human HL-60 cells at 1000 nM incubated for 72 hrs by MTT assay relative to control; type: functional
HL-60 [5] = test: Antiproliferative activity against human HL-60 cells at 100 nM incubated for 72 hrs by MTT assay relative to control; type: functional
MV4-11 [6] = test: Effect on cell cycle distribution in human MV4-11 cells assessed as accumulation at G0/G1 phase at 10 nM incubated for 72 hrs; type: functional, cell-based
MV4-11 [7] = test: Effect on cell cycle distribution in human MV4-11 cells assessed as accumulation at G0/G1 phase at 100 nM incubated for 72 hrs; type: functional, cell-based
MV4-11 [8] = test: Effect on cell cycle distribution in human MV4-11 cells assessed as accumulation at G0/G1 phase at 1000 nM incubated for 72 hrs; type: functional, cell-based
MV4-11 [9] = test: Effect on cell cycle distribution in human MV4-11 cells assessed as decrease in accumulation at G2/M phase at 10 to 1000 nM incubated for 72 hrs; type: functional, cell-based; conditions: dose 10-1000 nM
MV4-11 [10] = test: Upregulation of CD11b expression in human MV4-11 cells at 10 nM incubated for 72 hrs; type: functional, cell-based
MV4-11 [11] = test: Upregulation of CD14 expression in human MV4-11 cells at 10 nM incubated for 72 hrs; type: functional, cell-based
Rattus norvegicus [12] = test: Induction of calcium mobilization in bone of vitamin D-deficient Sprague-Dawley rat at 2340 pmol, ip administered daily for 4 days; type: functional, organism-based; conditions: Bone element, time 4.0 day
Rattus norvegicus [13] = test: Induction of calcium transport in intestine of vitamin D-deficient Sprague-Dawley rat at 780 pmol, ip administered daily for 4 days; type: functional, organism-based; conditions: time 4.0 day
HCC4006 [14] = test: Antiproliferative activity against human HCC4006 cells assessed as inhibition of cell proliferation at 10 nM incubated for 72 hrs by SRB assay relative to control; type: functional
HCC4006 [15] = test: Antiproliferative activity against human HCC4006 cells assessed as inhibition of cell proliferation at 1 nM incubated for 72 hrs by SRB assay relative to control; type: functional
HCC4006 [16] = test: Antiproliferative activity against human HCC4006 cells assessed as inhibition of cell proliferation at 100 nM incubated for 72 hrs by SRB assay relative to control; type: functional
HCC4006 [17] = test: Antiproliferative activity against human HCC4006 cells assessed as inhibition of cell proliferation at 1000 nM incubated for 72 hrs by SRB assay relative to control; type: functional
[18] = Antiproliferative activity against human LUDLU-1 cells at 100 nM incubated for 72 hrs by SRB assay relative to control; type: functional
NCI-H226 [19] = test: Antiproliferative activity against human NCI-H226 cells at 100 nM incubated for 72 hrs by SRB assay relative to control; type: functional
[20] = Antiproliferative activity against human LUDLU-1 cells at 1000 nM incubated for 72 hrs by SRB assay relative to control; type: functional
NCI-H226 [21] = test: Antiproliferative activity against human NCI-H226 cells at 1000 nM incubated for 72 hrs by SRB assay relative to control; type: functional

pIC50 (HCC4006 [1]): 7.35
SMILES: C[C@H](CCCC(C)(C)O)[C@@H]1CCCC[C@H]2/C(=C/C=C3C[C@@H](O)C[C@H](O)C3)CCC[C@@]21C
Activity (ROS 17/2.8): Active; Exhibited Equal Or Slightly Less Potency Than Calcitriol | inhibition at 0.1 µM (MCF7): 30.8% | Activity (MDA-MB-231): inactive | Activity (CAL-51): inactive | Activity (MCF-10A): Non-toxic | inhibition at 0.1 µM (MV4-11 [2]): 25.3% | inhibition at 1 µM (MV4-11 [3]): 31.2% | inhibition at 1 µM (HL-60 [4]): 24.2% | inhibition at 0.1 µM (HL-60 [5]): 17.9% | Activity (MV4-11 [6]): Active | Activity (MV4-11 [7]): Active | Activity (MV4-11 [8]): Active | Activity (MV4-11 [9]): Active | Activity (MV4-11 [10]): Active | Activity (MV4-11 [11]): Active; Exhibited Highest Expression | Activity (Rattus norvegicus [12]): inactive | Activity (Rattus norvegicus [13]): inactive

SMILES: C=C1/C(=C\C=C2/CCC[C@]3(C)[C@@H]([C@H](C)CCCC(C)(C)O)CC[C@@H]23)C[C@@H](O)C[C@@H]1O [CALCITRIOL]
inhibition at 0.01 µM (HCC4006 [14]): 30.4% | inhibition at 0.001 µM (HCC4006 [15]): 10.1% | inhibition at 0.1 µM (HCC4006 [16]): 14% | inhibition at 1 µM (HCC4006 [17]): 17% | inhibition at 0.1 µM [18]: 15% | inhibition at 0.1 µM (NCI-H226 [19]): 15% | inhibition at 1 µM [20]: 10% | inhibition at 1 µM (NCI-H226 [21]): 10% | inhibition at 0.1 µM (MV4-11 [2]): 39.8% | inhibition at 1 µM (MV4-11 [3]): 48.8% | inhibition at 1 µM (HL-60 [4]): 54.9% | inhibition at 0.1 µM (HL-60 [5]): 35.9%

pIC50 (HCC4006 [1]): 7.08
SMILES: CC1[C@H](O)CC(=C/C=C2\CCC[C@@]3(C)[C@H]2CCCC[C@H]3[C@H](C)CCCC(C)(C)O)C[C@H]1O (stereo not given in full)
Activity (ROS 17/2.8): Not active; Exhibited Equal Or Slightly Less Potency Than Calcitriol; Exhibited Least Activity | inhibition at 0.1 µM (MCF7): 29% | Activity (MDA-MB-231): inactive | Activity (CAL-51): inactive | inhibition at 0.1 µM (MV4-11 [2]): 39.7% | inhibition at 1 µM (MV4-11 [3]): 29.7% | inhibition at 1 µM (HL-60 [4]): 43.8% | inhibition at 0.1 µM (HL-60 [5]): 20.5% | Activity (MV4-11 [8]): Active | Activity (MV4-11 [9]): Active | Activity (MV4-11 [10]): inactive | Activity (MV4-11 [11]): inactive | Activity (Rattus norvegicus [12]): inactive | Activity (Rattus norvegicus [13]): inactive
